Patent publication US20050090399A1, “Phenyl substituted heterocyclic compounds useful as herbicides” (priority 2002, published 2005)

Columns and labels:
Agrostis (Agr) = test: Pre-emergence herbicidal action, greenhouse pot test: Agrostis; format: in vivo; settings: 125 g/ha
Method: (§1) Monocotyledonous and dicotyledonous weeds and summer wheat (Lona) are sown in standard soil in plastics pots. Directly after sowing, the test compounds are applied as EC 125 and WP 10 (without additional surface-active compounds). The rate of application is 125 g of active substance per ha. The test plants are then grown on in the greenhouse under optimum conditions. Evaluation is carried out 20 days after application: 100 denotes 100% damage to the plant in question.
(§2) Test plants: Agrostis (Agr), Alopecurus (Alo), Phalaris (Pha), Lolium (Lol) and Setaria (Set).

Lolium (Lol) = test: Pre-emergence herbicidal action, greenhouse pot test: Lolium; format: in vivo; settings: 125 g/ha
Method: as §1, §2

summer wheat (Lona) = test: Pre-emergence herbicidal action, greenhouse pot test: damage to summer wheat; format: in vivo; settings: 125 g/ha
Method: as §1, §2

Alopecurus (Alo) = test: Pre-emergence herbicidal action, greenhouse pot test: Alopecurus; format: in vivo; settings: 125 g/ha
Method: as §1, §2

Phalaris (Pha) = test: Pre-emergence herbicidal action, greenhouse pot test: Phalaris; format: in vivo; settings: 125 g/ha
Method: as §1, §2

Setaria (Set) = test: Pre-emergence herbicidal action, greenhouse pot test: Setaria; format: in vivo; settings: 125 g/ha
Method: as §1, §2

[1] = applied directly after sowing as WP 10, evaluation 20 days after application
[2] = applied directly after sowing as EC 125, evaluation 20 days after application

Row | SMILES | melting point [°C] | Herbicidal action (damage to the plant), Agr (Agrostis (Agr); [1]) [%] | Herbicidal action (damage to the plant), Lol (Lolium (Lol); [1]) [%] | Herbicidal action (damage to the plant), wheat (summer wheat (Lona); [1]) [%] | Herbicidal action (damage to the plant), Alo (Alopecurus (Alo); [1]) [%] | Herbicidal action (damage to the plant), Pha (Phalaris (Pha); [1]) [%] | Herbicidal action (damage to the plant), Set (Setaria (Set); [1]) [%] | other results
1 | CCCCCCCCCCCC(=O)Oc1c(-c2c(CC)cc(C)cc2CC)c(=O)n2n1CCOCC2 [1.01] | 106 to 107 | – | – | – | – | – | – | –
2 | CCCCCCCCCCCCCCCC(=O)Oc1c(-c2c(CC)cc(C)cc2CC)c(=O)n2n1CCOCC2 [1.02] | 91 to 92 | – | – | – | – | – | – | –
3 | CCCCCCCC/C=C\CCCCCCCC(=O)Oc1c(-c2c(CC)cc(C)cc2CC)c(=O)n2n1CCOCC2 [compound 1.03] | – | 98 | 90 | 10 | 90 | 100 | 100 | –
4 | CCCCCCCC/C=C\CCCCCCCCC(C)(C)C(=O)Oc1c(-c2c(CC)cc(C)cc2CC)c(=O)n2n1CCOCC2 [compound 1.05b] | – | 80 | 70 | 0 | 80 | 100 | 70 | –
5 | CCCCCCCC/C=C\CCCCCCCCC(C)C(=O)Oc1c(-c2c(CC)cc(C)cc2CC)c(=O)n2n1CCOCC2 (centres unmarked) [compound 1.12b] | – | 95 | 80 | 10 | 90 | 100 | 90 | –
6 | CCc1cc(C)cc(CC)c1C1C(=O)N2CCOCCN2C1=O [compound A, 8-(2,6-diethyl-4-methyl-phenyl)-tetrahydropyrazolo[1,2-d][1,4,5]oxadiazepine-7,9-dione, reference compound] | – | – | – | – | – | – | – | Herbicidal action (damage to the plant), Agr (Agrostis (Agr); [2]): 95%; Herbicidal action (damage to the plant), Lol (Lolium (Lol); [2]): 98%; Herbicidal action (damage to the plant), wheat (summer wheat (Lona); [2]): 20%; Herbicidal action (damage to the plant), Alo (Alopecurus (Alo); [2]): 100%; Herbicidal action (damage to the plant), Pha (Phalaris (Pha); [2]): 100%; Herbicidal action (damage to the plant), Set (Setaria (Set); [2]): 100%
